# Assays:
# [1] = tested on: liver cell carcinoma cell line Hep-G2; test: Cytotoxicity screening and LD50 determination on Hep-G2 (LDH, CytoTox-One); assay type: cell-based; details: for Cytotox 100 μM (%) HEPG2 / Viability 100 μM (%) HEP-G2: 24 h; for Cytotox 100 μM (%) HEPG2: LDH activity in cell culture media, lysed untreated cells = 100%; for Viability 100 μM (%) HEP-G2: LDH of lysed cells, untreated control = 100%; for LD50 Viability HEP-G2 / LD50 cytotox HEP-G2: 8 serial dilutions, highest concentration 1 mM; for Cytotox 100 μM (%) HEPG2 / Viability 100 μM (%) HEP-G2 / Observed cytotox: 100 μM; for Observed cytotox: Hep-G2, observation of the cells
# Method in brief: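 Hep-G2 cells (50 000/well) precultured 24 h, then compound in DMSO (final 1%) added for 24 h. Screen at 100 μM, 2 μM, 40 nM in triplicate. LDH in medium gave cytotoxicity (untreated 0%, lysed 100%); LDH of lysed cells gave viability. LD50 from 8 serial dilutions, top 1 mM.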
# [2] = target: DP IV (Homo sapiens, UniProt P27487); test: DP IV inhibition IC50, parallel-synthesis compounds tested directly following synthesis (without purification); assay type: biochemical; set-up: IC50 DP4; other: tested directly following parallel synthesis, without purification; compounds of formula (Ib) from parallel synthesis, tested directly following synthesis; details: DP IV inhibition; compounds of formula (Ib) from parallel synthesis, tested directly following synthesis (without purification); read-out: IC50
# Method in brief: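 IC50 came from a 4-parameter fit of residual activity (linear 405 nm slopes for pNA release over ~18 min, relative to solvent-only wells). Gly-Pro-pNA was the substrate, cleaved by porcine kidney or recombinant human DP IV at room temperature in HEPES with 5% DMSO; duplicate 1:2 series started at 100 μM final.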
# [3] = tested on: Caco-2 monolayer; test: Caco-2 transport assay; assay type: in vitro ADME, human; details: assessment of permeability and transport type
# Procedure: (§1) The concentration of compounds in the Caco experiments may be determined from their potency to inhibit recombinant human DP IV.
# (§2) Reaction is started by addition of 20 μl rhDP IV and release of pNA was monitored at 405 nm. Samples are analyzed in several dilutions (undiluted, 1:10, 1:[…]). Dilutions are done in the Caco assay buffer. Activity measured with Caco-assay buffer alone is set to 100% and inhibitor concentration is calculated from the dilutions resulting in 20 to 80% inhibition according to the equation for competitive inhibition.
# (§3) [formula] • I=inhibitor concentration • v0=velocity of the reaction without inhibitor (Caco assay buffer alone) • vi=velocity of the reaction with inhibitor sample • Ki=Ki-value of the compound • DF=dilution factor of the sample Transport Assay
# (§4) The human colon adenocarcinome cell line Caco-2 are grown in 6- or 24-transwell microplates (Costar) for 21 days with MEM-alpha containing 10% FBS and 0.5% Gentamycin (Invitrogen). After 21 days of cultivation integrity of the cell layer are assessed by measurement of the transepitelial electrical resistance.
# (§5) Transport measurements are carried out in triplicates at a pH of 7.5. For each compound and direction (apical to basal (a-b), basal to apical (b-a)) two separate experiments are done. Samples are collected from the donor and acceptor compartments at the beginning of the experiment and after 60 min (for 6-well plates, Donor at 0 and 120 min, Acceptor at 15, 30, 60 and 120 min).
# (§6) Samples are analyzed in several dilutions for their ability to inhibit human recombinant DP IV and compound concentrations may be calculated using the prior determined Ki-value (see above).
# (§7) The permeability coefficient Papp is calculated according to the following equation:
# (§8) [formula] • VA=Volume of the acceptor compartment • A=Area of the transwell membrane • t=sampling time • cAt=concentration in the acceptor compartment at sampling time • CDO=concentration in the donor compartment at t=0
# (§9) Papp-values>1e-5 cm/s are assessed as good permeable, value<1e-6 cm/s as not permeable. Papp-values in between as medium permeable. Compounds where no significant difference were found between a-b and b-a transport are assessed to be passive transported.
# [4] = Caco-2 transport assay; assay type: in vitro ADME, human; details: human, Caco-2, pH 7.5; for Papp A→B: apical to basal; for Papp B→A: basal to apical
# Procedure: as §1, §2, §3, §4, §5, §6, §7, §8, §9
# [5] = target: DP9 (Homo sapiens, UniProt Q86TI2); test: DP9 assay; assay type: biochemical; details: for Selectivity DP9(IC50)/DPIV(Ki): ratio IC50 DP9 / Ki DP IV
# Procedure: Determination of IC50 values for DPII and DP9 are done similarly as described for DP IV.
# For DP9 Gly Pro-AMC is used as substrate in a final concentration of 0.25 mM.
# DP9, sequence (Q86TI2 whole entry, species assumed): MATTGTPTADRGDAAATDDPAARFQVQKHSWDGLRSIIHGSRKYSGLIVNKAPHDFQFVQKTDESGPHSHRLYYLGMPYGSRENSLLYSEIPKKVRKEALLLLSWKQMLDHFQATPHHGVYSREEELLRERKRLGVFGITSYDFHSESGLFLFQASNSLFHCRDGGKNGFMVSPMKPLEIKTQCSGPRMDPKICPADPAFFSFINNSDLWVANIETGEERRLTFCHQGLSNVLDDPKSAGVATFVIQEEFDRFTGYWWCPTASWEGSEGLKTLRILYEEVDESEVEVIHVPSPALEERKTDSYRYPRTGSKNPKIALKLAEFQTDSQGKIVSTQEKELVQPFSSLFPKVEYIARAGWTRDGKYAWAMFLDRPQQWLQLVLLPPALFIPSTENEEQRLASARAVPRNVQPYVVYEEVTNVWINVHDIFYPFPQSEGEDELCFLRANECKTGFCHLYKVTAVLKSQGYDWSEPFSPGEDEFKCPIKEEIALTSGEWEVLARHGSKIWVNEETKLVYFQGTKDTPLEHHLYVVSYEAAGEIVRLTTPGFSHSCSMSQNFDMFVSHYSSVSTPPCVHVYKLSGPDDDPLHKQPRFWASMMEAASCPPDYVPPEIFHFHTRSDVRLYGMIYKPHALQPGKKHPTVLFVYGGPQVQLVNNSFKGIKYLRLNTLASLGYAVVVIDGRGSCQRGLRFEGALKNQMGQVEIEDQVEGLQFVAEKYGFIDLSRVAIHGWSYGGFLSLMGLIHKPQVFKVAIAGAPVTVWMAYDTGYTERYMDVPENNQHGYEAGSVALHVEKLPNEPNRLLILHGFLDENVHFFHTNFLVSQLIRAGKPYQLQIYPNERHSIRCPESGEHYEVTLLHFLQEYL
SMILES,Cytotox 100 μM (%) HEPG2 [1] [%],Viability 100 μM (%) HEP-G2 [1] [%],LD50 Viability HEP-G2 [1] [mM],LD50 cytotox HEP-G2 [1] [mM],IC50 [2] [µM],Transport [3],Papp A→B [4] [×10⁻⁶ cm/s],Papp B→A [4] [×10⁻⁶ cm/s],Selectivity DP9(IC50)/DPIV(Ki) [5],Ki [5] [µM],IC50 ([5]; Gly Pro-AMC 0.25 mM) [µM],Observed cytotox [1] [% spheric]
"NCc1c(-c2ccc(Cl)cc2Cl)ncn1Cc1cccnc1 [Example 121b, (4-(2,4-dichlorophenyl)-1-((pyridin-3-yl)methyl)-1H-imidazol-5-yl)methanamine]",0,104.0,1.05,0.92,4.6,"good, passive",36.4,40.4,"34,797",–,–,–
"NCc1c(-c2ccc(Cl)cc2Cl)ncn1Cc1ccsc1 [Example 130b, (4-(2,4-dichlorophenyl)-1-((thiophen-3-yl)methyl)-1H-imidazol-5-yl)methanamine]",–,–,0.24,0.21,–,"good, passive",40,31.2,"12,653",21.5,97.3,–
NCc1c(-c2ccc(Cl)cc2Cl)ncn1Cc1ccccn1 [Example 39b],3.9,115.7,0.80,0.74,4.6,"good, passive",40.6,42.5,"20,951",–,–,20
"NCc1c(-c2ccc(Cl)cc2Cl)ncn1Cc1ccccc1 [Example 24b, (1-benzyl-4-(2,4-dichlorophenyl)-1H-imidazol-5-yl)methanamine]",5.9,119.2,0.20,0.18,0.9,"good, passive",37.5,41.7,"25,527",–,–,10

# From US7728146B2, “Enzyme inhibitors” (Probiodrug AG, priority 2006, dated 2010)
